We go through 9 compounds from patent US20240208944A1, “Quinazoline Derivatives, Pharmaceutical Compositions, and Therapeutic Uses Related to Nox Inhibition” (Emory University, priority 2021, published 2024).

Where a name gives a salt, the structure may show the parent alone. Read-outs that look alike come from different tables or passages of the source.

Data set [1] has as its target NOX-4 (Homo sapiens (Human), UniProt Q9NPH5). Put plainly: NOX-4 inhibition (Nox assays). Type of data set: biochemical.
The nature of data set [2]: Cytotoxicity CC50. Type of data set: cell-based.
For data set [3], the target named is NOX-2 (Homo sapiens (Human), UniProt P04839). The data set can be described thus: NOX-2 inhibition (Nox assays). Type of data set: biochemical.
Chain of NOX-2 (P04839 2-570, species assumed): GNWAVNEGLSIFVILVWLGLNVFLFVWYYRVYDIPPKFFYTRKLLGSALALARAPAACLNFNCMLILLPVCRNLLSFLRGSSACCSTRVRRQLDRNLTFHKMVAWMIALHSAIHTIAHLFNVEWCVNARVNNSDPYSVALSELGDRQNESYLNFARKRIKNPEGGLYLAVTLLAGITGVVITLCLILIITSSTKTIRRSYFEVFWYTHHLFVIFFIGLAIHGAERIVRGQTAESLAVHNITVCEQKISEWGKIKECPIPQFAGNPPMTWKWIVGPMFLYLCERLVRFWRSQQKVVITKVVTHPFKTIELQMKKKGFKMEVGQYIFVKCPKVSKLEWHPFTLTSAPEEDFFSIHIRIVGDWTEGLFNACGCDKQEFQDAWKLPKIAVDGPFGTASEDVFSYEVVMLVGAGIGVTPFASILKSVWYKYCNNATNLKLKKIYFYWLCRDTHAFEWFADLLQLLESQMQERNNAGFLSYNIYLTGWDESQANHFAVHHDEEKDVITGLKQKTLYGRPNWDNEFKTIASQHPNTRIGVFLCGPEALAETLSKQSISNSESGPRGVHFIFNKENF
Chain of NOX-2 (P13498 whole entry partner, species assumed): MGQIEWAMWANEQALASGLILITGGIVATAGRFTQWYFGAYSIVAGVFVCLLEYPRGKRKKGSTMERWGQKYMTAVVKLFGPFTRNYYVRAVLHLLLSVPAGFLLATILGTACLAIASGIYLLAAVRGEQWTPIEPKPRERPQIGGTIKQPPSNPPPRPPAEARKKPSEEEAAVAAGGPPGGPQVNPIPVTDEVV
Data set [4] in a line: In vivo pharmacokinetics in Sprague Dawley rats. On the set-up: species or system rat. The settings on record: for half-life: male SD rats. The text has this: The compound has a brain-to-plasma ratio >10.
In Vivo Pharmacokinetics for Compound TG15-132S in Sprague Dawley (SD) Rats.

Data set [5] can be described thus: Aqueous (water) solubility. Type of data set: physicochemical. The note with it: for solubility: water. As to the method: (§1) The aqueous solubility, liver microsomal stability, and in vivo pharmacokinetics were determined. […] These derivatives have requisite stability in mouse liver microsomes.
Data set [6] in a line: Mouse liver microsomal stability. The note with it: mouse liver microsomes; read-out: MLM T1/2. Type of data set: in vitro ADME. How it is done: as §1
Background: Liver microsomes are a subcellular fraction often used to study metabolism.

In data set [7] the test system is THP1 monocytic cells. Put plainly: PMA-induced mRNA levels of NOX2, its subunits and inflammatory markers in THP1 cells. Type of data set: cell-based. The note with it: THP1 cells treated with PMA 100 ng/ml. An excerpt: These markers are suppressed by the treatment of NOX2 inhibitor TG15-132.HCI.

Chain of NOX-4 (Q9NPH5 whole entry, species assumed): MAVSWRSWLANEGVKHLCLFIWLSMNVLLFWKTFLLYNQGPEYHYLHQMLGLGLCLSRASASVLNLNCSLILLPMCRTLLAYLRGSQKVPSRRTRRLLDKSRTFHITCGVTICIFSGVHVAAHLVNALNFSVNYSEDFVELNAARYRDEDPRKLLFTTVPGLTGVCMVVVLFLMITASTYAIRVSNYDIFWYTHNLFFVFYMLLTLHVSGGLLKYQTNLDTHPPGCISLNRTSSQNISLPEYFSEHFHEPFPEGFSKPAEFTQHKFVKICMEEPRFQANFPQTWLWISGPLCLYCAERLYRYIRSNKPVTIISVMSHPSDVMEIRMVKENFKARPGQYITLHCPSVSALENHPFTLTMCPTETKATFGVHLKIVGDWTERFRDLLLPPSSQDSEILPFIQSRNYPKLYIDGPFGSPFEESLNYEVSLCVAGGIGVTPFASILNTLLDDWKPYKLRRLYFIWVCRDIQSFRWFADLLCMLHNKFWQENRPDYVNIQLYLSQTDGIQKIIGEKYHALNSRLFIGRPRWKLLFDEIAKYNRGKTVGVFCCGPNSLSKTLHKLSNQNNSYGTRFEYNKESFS
Chain of NOX-4 (P13498 whole entry partner, species assumed): as the sequence (P13498 whole entry partner, species assumed) above

For `O=C(CCCn1c(=S)[nH]c2ccccc2c1=O)N1CCN(c2ccccc2O)CC1` [Compd. 43, 3-(4-(4-(2-hydroxyphenyl)piperazin-1-yl)-4-oxobutyl)-2-thioxo-2,3-dihydroquinazolin-4(1H)-one], the IC50 was greater than 50 µM in data set [1] and 2.3 µM in data set [3]. In data set [2], this compound yielded a CC50 greater than 20 µM.

Regarding `O=C(CCCn1c(=S)[nH]c2ccc(F)cc2c1=O)N1CCN(c2ccccc2O)CC1` [LY4-123S, 6-fluoro-3-(4-(4-(2-hydroxyphenyl)piperazin-1-yl)-4-oxobutyl)-2-thioxo-2,3-dihydroquinazolin-4(1H)-one], the IC50 in data set [1] stood at 8.3 µM; in data set [3], 3.3 µM.

Turning to `CN(C)CCCn1c(SCc2ccccn2)nc2ccc(F)cc2c1=O` [LY5-10, 3-(3-(dimethylamino)propyl)-6-fluoro-2-((pyridin-2-ylmethyl)thio)quinazolin-4(3H)-one], the IC50 in data set [3] was greater than 100 µM.

In data set [3], `CN(C)CCCn1c(SCCCc2ccccn2)nc2ccc(F)cc2c1=O` [LY5-11, 3-(3-(dimethylamino)propyl)-6-fluoro-2-((3-(pyridin-2-yl)propyl)thio)quinazolin-4(3H)-one] returned an IC50 greater than 100 µM.

Regarding `CN(C)CCCn1c(SCCc2ccccn2)nc2ccc(Cl)cc2c1=O` [TG15-124-HCl, 6-chloro-3-(3-(dimethylamino)propyl)-2-((2-(pyridin-2-yl)ethyl)thio)quinazolin-4(3H)-one], the CC50 in data set [2] is greater than 10 µM. Moreover, in data set [3], the half-maximal inhibitory concentration (IC50) was greater than 100 µM.

Regarding `CN(C)CCCn1c(SCCc2ccccn2)nc2ccc(F)cc2c1=O` [TG15-131-HCl, 3-(3-(dimethylamino)propyl)-6-fluoro-2-((2-(pyridin-2-yl)ethyl)thio)quinazolin-4(3H)-one], the IC50 in data set [3] is greater than 50 µM.

With `CN(C)CCCn1c(SCCc2c[nH]c3ccccc23)nc2ccc(F)cc2c1=O.Cl` [TG15-132S, 2-((2-(1H-indol-3-yl)ethyl)thio)-3-(3-(dimethylamino)propyl)-6-fluoroquinazolin-4(3H)-one, hydrochloride], the half-maximal inhibitory concentration (IC50) was 26 µM in data set [1] and 3.3 µM in data set [3]. The clearance rate in data set [4] (SD rats, single 20 mg/kg IP) was 32.75 mL/min/kg. Besides, the half-life is greater than 5 h in data set [4] (Sprague-Dawley, rat, 20 mg/kg IP, brain, read-out: half-life in the brain); greater than 5 h in data set [4] (Sprague-Dawley, rat, 20 mg/kg IP, plasma, read-out: half-life in plasma); 0.4 h in data set [6]. The Kp in data set [4] (male, Sprague-Dawley, brain and plasma, rat, 20 mg/kg IP, read-out: In vivo B/P Ratio (brain-to-plasma ratio)) is greater than 10. Besides, in data set [4] (rat, 20 mg/kg IP, hydrochloride), the “In vivo B/P Ratio (brain-to-plasma ratio)” value is given as greater than 10. Also, the “water solubility (in words)” value in data set [5] is “excellent water solubility”. In data set [5], the solubility came out at 1200 µM. Moreover, in data set [2], the CC50 was greater than 20 µM. The “mRNA levels of NOX2 (gp91phox), p47phox, p67phox, IL-1beta and TNF” value in data set [7] is listed as “suppressed”.

As for `CN(C)CCCn1c(SCCc2c[nH]c3ccccc23)nc2ccc(Cl)cc2c1=O.Cl` [TG15-139S, 2-((2-(1H-indol-3-yl)ethyl)thio)-6-chloro-3-(3-(dimethylamino)propyl)quinazolin-4(3H)-one. Hydrochloride], the IC50 in data set [1] was 32 µM. Further, the Kp at 8 h in data set [4] (male, Sprague-Dawley, rat, brain and plasma, SD rats, single 20 mg/kg IP, up to 8 h, read-out: brain-to-plasma ratio up to 8 h) was greater than 10. For the same compound, in data set [4] (male, Sprague-Dawley, rat, brain and plasma, SD rats, single 20 mg/kg IP, read-out: brain-to-plasma ratio), the Kp was greater than 23. Further, in data set [5], the “water solubility (in words)” value is “excellent water solubility” and the solubility came to 2350 µM. In data set [2], the CC50 is greater than 10 µM. Further, the half-life in data set [6] was 1.25 h. Moreover, it took 1.65 µM to reach half-maximal inhibition in data set [3] (IC50).

As to `CC(C)N1CCN(CCCn2c(SCCc3c[nH]c4ccccc34)nc3ccc(F)cc3c2=O)CC1` [TG17-57, 2-((2-(1H-indol-3-yl)ethyl)thio)-6-fluoro-3-(3-(4-isopropylpiperazin-1-yl)propyl)quinazolin-4(3H)-one], the IC50 in data set [3] came out at 2.4 µM.

The term IC50 denotes the concentration at which inhibition is half-maximal. A lower IC50 goes with greater potency in that assay. Usually CC50 stands for the concentration giving 50% cytotoxicity. The term solubility denotes how much of the substance goes into solution per volume. Low values mean little dissolved substance, high ones much dissolved substance.
